Measurements as given in PubChem BioAssay (NCI).
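Tested at 5 concentrations; 48 h exposure; 96-well plates; endpoints linearly interpolated, else capped at highest concentration. The concentration for 50% growth inhibition is given as GI50. TGI: concentration producing complete growth inhibition.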

Experiments:
Experiment in all cases: NCI-60 cell line screen, 48 h
NCI-H460 lung = tested on: NCI-H460 lung
OVCAR-3 ovarian = tested on: OVCAR-3 ovarian
OVCAR-8 ovarian = tested on: OVCAR-8 ovarian
SK-MEL-5 melanoma = tested on: SK-MEL-5 melanoma
IGROV1 ovarian = tested on: IGROV1 ovarian
U251 CNS = tested on: U251 CNS
SK-MEL-2 melanoma = tested on: SK-MEL-2 melanoma
MALME-3M melanoma = tested on: MALME-3M melanoma
UACC-257 melanoma = tested on: UACC-257 melanoma
MCF7 breast = tested on: MCF7 breast

Compound	TGI (NCI-H460 lung) [µM]	TGI (OVCAR-3 ovarian) [µM]	TGI (OVCAR-8 ovarian) [µM]	TGI (SK-MEL-5 melanoma) [µM]	TGI (IGROV1 ovarian) [µM]	TGI (U251 CNS) [µM]	TGI (SK-MEL-2 melanoma) [µM]	TGI (MALME-3M melanoma) [µM]	TGI (UACC-257 melanoma) [µM]	GI50 (NCI-H460 lung) [µM]	GI50 (OVCAR-3 ovarian) [µM]	GI50 (OVCAR-8 ovarian) [µM]	GI50 (SK-MEL-5 melanoma) [µM]	GI50 (IGROV1 ovarian) [µM]	GI50 (UACC-257 melanoma) [µM]	GI50 (U251 CNS) [µM]	GI50 (SK-MEL-2 melanoma) [µM]	GI50 (MCF7 breast) [µM]	TGI (MCF7 breast) [µM]	GI50 (MALME-3M melanoma) [µM]
O=C(c1ccccc1)[C@H]1Nc2ccc(Cl)cc2[C@H]2CCC[C@@H]12	88	68.6	> 100	23	> 100	> 100	49.5	51.3												
CCOC(=O)C1(C)CCC(C(C(=O)O)C(=O)O)CC1=O (stereo unspecified)	> 100	> 100	> 100	> 100	> 100	> 100		> 100	> 100											
COc1ccc(-c2nc3ccc(Cc4ccc5nc(-c6ccc(OC)cc6)[nH]c5c4)cc3[nH]2)cc1	0.122	0.0503	1.17	1.27	2.26	0.162	1.75		3.31	0.0335	0.0217	0.0438	0.0193	0.0445	1.5	0.028	0.0404	0.0254	0.424	
c1ccc(C(c2ccccc2)c2ccccn2)cc1	> 100	> 100	> 100	> 100	> 100	> 100	> 100	> 100	> 100											
CCCCCC/C=C\CCCCCCCCC(=O)c1cccc(OC)c1OC			> 100	60.9	> 100	> 100	> 100	> 100	> 100											
COc1cc(/C=C2\NC(=O)C(Cc3cc(OC)c(OC)c(C)c3OC)N(C(C)=O)C2=O)c(OC)c(C)c1OC (stereo unspecified)	> 100	> 100	> 100	> 100	> 100	> 100	> 100	> 100	> 100											
CNCc1ccc(-c2cc(-c3nc(-c4ccc(S(=O)(=O)C(C)C)cc4)cnc3N)on2)cc1	1.6	10.6	5.94	12.3	10.5	21.5	16.4		9.35	0.322	2.93	2.31	2.59	1.2	3.05	4.93	2	0.0946	1.82	
NNC(=O)C(=O)NN=C(C(Cl)(Cl)CO)C(Cl)(Cl)CO	> 100	68	57.9	> 100	> 100	53.2	> 100	44.4	> 100											
O=C(CCCC(=O)Nc1ccc(Cl)cc1Cl)CC(=O)c1ccc2ccccc2c1	> 100	> 100	> 100	> 100	> 100	> 100	> 100	> 100	> 100											
O=C1c2ccccc2N2OC3(N4CCOCC4)CCCC3C12c1ccccc1 (stereo unspecified)			> 100	> 100	> 100	> 100		> 100	> 100											
Cc1ccc(NC(=O)c2cc(S(=O)(=O)Nc3nnc(-c4ccccc4)c(-c4ccccc4)n3)c(SCc3ccccc3)cc2Cl)cc1	> 100	35.1	76.8	37.6	93.7	28.7	> 100		41.7	26.4	17.5	29.4	19.2	26.9	20.7	13.7	49	24.4	> 100	
OC(c1ccccc1Br)(c1ccccc1Br)C(F)(F)F	> 100	51.7	> 100		> 100	34.3	35.5	52.3	72.9											
CC1NOC(=O)C1N=Nc1ccc(Cl)cc1Cl (stereo unspecified)	59.5	36.9	72	73.2	85.7	38.5	75	56.8	67.2											
CC12OC(=O)C(C#N)C1(C)C1C(=O)CCCC12 (stereo unspecified)	> 100	> 100	> 100	> 100	> 100	> 100	> 100	> 100												
CCCCCCCCOCC(COC(=O)CCCCCCC)OC(=O)CCCCCCC (stereo unspecified)	> 100	> 100	> 100	> 100	> 100	> 100		> 100	> 100											
C1CCC(N=C2N(C3CCCCC3)C(=NC3CCCCC3)N2C2CCCCC2)CC1	> 100	> 100	> 100	> 100	> 100	> 100	> 100	> 100	> 100											
CC(=O)Oc1c(C(=O)[O-])cc(C(C)C)cc1C(C)C.CC(=O)Oc1c(C(=O)[O-])cc(C(C)C)cc1C(C)C.CC(=O)Oc1c(C(=O)[O-])cc(C(C)C)cc1C(C)C.CC(=O)Oc1c(C(=O)[O-])cc(C(C)C)cc1C(C)C.[Cu+2].[Cu+2]	> 100	65.9	> 100	32.9	> 100	51.5	> 100		36.9	34.8	27.3	30.6	18	30.4	18.2	19.9	40.8	21	65.2	
COC(=O)C(C(=O)C(=O)Nc1c(Cl)cc([N+](=O)[O-])cc1Cl)c1csc(-n2nc(C3=CCCCC3)cc2-c2ccccc2)n1 (stereo unspecified)	> 100	> 100	> 100			> 100	> 100	> 100	> 100											
COc1ccc(/C=C2\C(=O)N(NC(C)=O)c3ccccc32)cc1	> 100	> 100	> 100	> 100	> 100	> 100	> 100	> 100	> 100											
COc1cc(-c2nccc3[nH]c(-c4ccc5cc[nH]c5c4)nc23)cc(OC)c1OC	1.04		11.1	0.563	3.77	1.85	3.06	3.2		< 0.01		< 0.01	< 0.01	0.015		< 0.01	< 0.01	0.0568	2.87	1.29
